In brackets after ≈: the same amount, converted by molar mass. Where a name gives a salt, the structure may show the parent alone. Read-outs that look alike come from different tables or passages of the source.
Key:
Type in all cases: cell-based
[1] = system: chronically HIV-1 infected promonocytic cell line, U1; experiment: Virus expression in chronically HIV-1 infected promonocytic U1 cells (p24 ELISA)
Description: Therefore, compounds 4 and 5 were separately added for 72 hours to the chronically HIV-1 infected T cell line, ACH-2, and to the chronically HIV-1 infected promonocytic cell line, U1.
HIV-1 chronically infected T cell line, ACH-2, ^15 and HIV-1 chronically infected promonocytic cell line, U1 ^16 were continuously maintained in RPMI1640 with 10% fetal calf serum (FCS). For experiments, the cell lines were only used in log-phase of growth. Cells (1×10^6 cells/well) and either various concentrations of 4,5, AZT or media alone were added to 24-well plates in the presence or absence of PMA (10^-8 M). After 72 hours at 37° C. and 5% CO2, an aliquot of the cell-free supernatants was collected and analyzed for p24 antigen by ELISA.

[2] = system: HIV-1 (IIIB isolate); experiment: microbe, parasite or virus in culture; details: for Therapeutic Index: 5760 min; for EC50: acutely infected H9 lymphocytes; for anti-HIV activity: result in words
Description: (§1) The H9 T cell line was maintained in continuous culture with complete medium (RPMI and 10% fetal calf serum) at 5% CO2 and 37° C. and was used in experiments only when in log phase of growth. The cells were incubated with HIV-1 (IIIB isolate, TCID50 10^4 IU/mL, at a multiplicity of infection of 0.1-0.01 IU/cell) for 1 hour at 37° C. and 5% CO2. The cells then were washed thoroughly to remove unabsorbed virions and resuspended at 4×10^5 cells/mL in complete medium. Aliquots (1 mL) were placed in wells of 24-well culture plates containing an equal volume of test compound (diluted in the culture medium). After a four day incubation at 37° C., cell density of uninfected cultures was determined by counting cells in a Coulter counter to assess toxicity of the test compound. A p24 antigen ELISA assay was used to determine the level of virus released in the medium of the HIV-infected cultures. The p24 antigen assay uses an HIV-1 anti-p24 specific monoclonal antibody as the capture antibody coated on 96 well plates. Following a sample incubation period, rabbit serum containing antibodies for HIV-1 p24 is used to tag any p24 "captured" onto the microtiter well surface. […] The cut-off for the p24 ELISA assay is 12.5 pg/mL. P24 in the culture medium was quantitated against a standard curve containing known amounts of p24. The effective (EC50) and inhibitory concentrations (for anti-HIV activity and cytotoxicity, respectively) were determined.

[3] = system: H9 T cell line; experiment: Toxicity to uninfected H9 cells (cell count)
Description: as §1

[4] = Table I, cytotoxicity, uninfected H9 cells
[5] = Homo sapiens, H9, Table I, cytotoxicity, uninfected H9 cells, read-out: IC50
[6] = Human immunodeficiency virus 1, IIIB, Lymphocyte, Table I, read-out: EC50
[7] = T-cell, Table IA, concentration that causes a 50% reduction in total cell number, read-out: IC50
[8] = Human immunodeficiency virus 1, IIIB, Lymphocyte, Table IA, read-out: EC50

| SMILES | EC50 [2, 6] [µg/mL] | Therapeutic Index ([2]; Table I, IC50/EC50) | anti-HIV activity [2] | IC50 [3, 5] [µg/mL] | IC50 [3, 7] [µg/mL] | further results |
| --- | --- | --- | --- | --- | --- | --- |
| Cc1cn([C@H]2C[C@H](N=[N+]=[N-])[C@@H](CO)O2)c(=O)[nH]c1=O [AZT, azidothymidine, reference compound] |  |  |  |  |  | p24 ([1]; +Media, 0.1 μg/mL): 18 pg/mL; p24 ([1]; +Media, 1 μg/mL): 12 pg/mL; p24 ([1]; +Media, 10 μg/mL): 13 pg/mL; p24 ([1]; +Media, 100 μg/mL): 22 pg/mL; p24 ([1]; +PMA, 0.1 μg/mL): 8,070 pg/mL; p24 ([1]; +PMA, 1 μg/mL): 8,218 pg/mL; p24 ([1]; +PMA, 10 μg/mL): 9,299 pg/mL; p24 ([1]; +PMA, 100 μg/mL): 9,338 pg/mL |
| COc1c(Br)c(C(=O)O)c(-c2c3c(c(OC)c(Br)c2C(=O)O)OCO3)c2c1OCO2 [Compound 6, 3,3'-Dibromo-4,4'-dimethoxy-5,6,5'6'-bimethylenedioxy-2,2'-dicarboxy biphenyl] |  | 1 | decrease in the anti-HIV activity |  |  | EC50 ([2]; Table I): > 100 µg/mL; IC50 [3, 4]: > 100 µg/mL |
| COc1c(Br)c(C(=O)O)c(-c2c3c(c(OC)c(Br)c2C(=O)O)OCO3)c2c1OCO2 [Compound 7, 3,3'-Dibromo-4,4'-dimethoxy-5,6,5'6'-bimethylenedioxy-2,2'-dicarboxy biphenyl disodium salt] |  |  | decrease in the anti-HIV activity |  |  | Therapeutic Index ([2]; Table I, IC50/EC50, disodium salt): 1; EC50 ([2]; Table I, disodium salt): > 100 µg/mL; IC50 ([3]; Table I, cytotoxicity, uninfected H9 cells, disodium salt): > 100 µg/mL |
| COc1c2c(c3c(c1Br)c(=O)oc(=O)c1c(Br)c(OC)c4c(c13)OCO4)OCO2 [Compound 8, 3,3'-Dibromo-4,4'-dimethoxy-5,6,5'6'-bimethylenedioxy biphenyl 2,2'-dicarboxylic anhydride] |  |  |  | > 100 |  |  |
| CCOC(=O)c1c(Br)c(OC)c2c(c1-c1c3c(c(OC)c(Br)c1C(=O)O)OCO3)OCO2 [Compound 10, 3,3'-Dibromo-4,4'-dimethoxy-5,6,5'6'-bimethylenedioxy-2-ethoxycarbonyl-2'-carboxy biphenyl monosodium salt] |  |  |  |  |  | IC50 [3, 4]: > 100 µg/mL |
| COc1c(Br)c(C(=O)O)c(-c2c3c(c(OC)c(Br)c2C(=O)NCCN2CCNCC2)OCO3)c2c1OCO2 [Compound 12, 3,3'-Dibromo-4,4'-dimethoxy-5,6,5'6'-bimethylenedioxy-2-carboxy-2'-(β-N-piperazine)ethylcarbonyl biphenyl] | 30 (≈ 45.5 µM) | > 3.3 | decrease in the anti-HIV activity | > 100 |  |  |
| COc1c(Br)c(C(=O)O)c(-c2c3c(c(OC)c(Br)c2C(=O)NCCN2CCCC2)OCO3)c2c1OCO2 [Compound 13, 3,3'-Dibromo-4,4'-dimethoxy-5,6,5'6'-bimethylenedioxy-2-carboxy-2'-(β-N-pyrrolidinyl)ethylcarbonyl biphenyl hydrobromide] | > 100 | 1 | decrease in the anti-HIV activity | > 100 |  |  |
| COc1c(Br)c(C(=O)O)c(-c2c3c(c(OC)c(Br)c2C(=O)O)OCO3)c2c1OCO2 [Compound 14, 3,3'-Dibromo-4,4'-dimethoxy-5,6,5',6'-bimethylenedioxy-2,2'-dicarboxy biphenyl di-1-(2-hydroxyethyl)pyrrolidinium salts] |  |  |  |  |  | EC50 ([2]; Table I): 17 µg/mL |
| COc1c(OCc2ccccc2)c(OCc2ccccc2)cc(CO)c1-c1c(CO)c(Br)c(OCc2ccccc2)c(OCc2ccccc2)c1OC [Compound 18, 2,2'-Dihydroxymethyl-3-bromo-4,4'5,5'-tetrakis(benzyloxy)-6,6'-dimethoxy biphenyl] | 100 (≈ 129 µM) | > 1 | no anti-HIV activity | > 100 |  |  |
| COC(=O)c1c2c(c(OC)c(Br)c1-c1c(Br)c(OC)c3c(c1C(=O)OC)OCO3)OCO2 [Compound 110, 6,6'-Dibromo-5,5'-dimethoxy-3,4,3'4'-bimethylenedioxy-2,2'-dimethoxycarbonyl biphenyl] |  |  |  |  | 45 (≈ 78.1 µM) | EC50 ([2]; Table IA): no inhibition |
| COC(=O)c1cc2c(c(OC)c1-c1c(C(=O)OC)cc3c(c1OC)OCO3)OCO2 [Compound 114, 6,6'-dimethoxy-4,5,4'5'-bimethylenedioxy-2,2'-dimethoxycarbonyl biphenyl] |  |  |  |  | > 100 | EC50 [2, 8]: 65 µg/mL (≈ 155 µM); Therapeutic Index ([2]; Table IA, ratio IC50/EC50): > 1.2 |
| COC(=O)c1cc2c(c(OC)c1-c1c(C(=O)OC)cc(OC)c3c1OCO3)OCO2 [Compound 115, 4,6'-dimethoxy-5,6,4'5'-binethylenedioxy,2,2'-dimethoxycarbonyl biphenyl] |  |  |  |  | > 100 | EC50 [2, 8]: 7.5 µg/mL (≈ 17.9 µM); Therapeutic Index ([2]; Table IA, ratio IC50/EC50): > 13 |
| COC(=O)c1c(-c2cc(OC)c3c(c2C(=O)OC)OCO3)cc(OC)c2c1OCO2 [Compound 116, 5,5'-Dimethoxy-3,4,3 '4'-bismethylenedioxy-2,2'-dimethoxycarbonyl biphenyl] |  |  |  |  | > 100 | EC50 [2, 8]: 70 µg/mL (≈ 167 µM); Therapeutic Index ([2]; Table IA, ratio IC50/EC50): > 1.4 |
| COC(=O)c1cc(-c2cc(C(=O)OC)c3c(c2OC)OCO3)c(OC)c2c1OCO2 [Compound 117, 2,2'-Dimethoxy-3,4,3'4'-bismethylenedioxy-5,5'-dimethoxycarbonyl biphenyl] |  |  |  |  | 1.8 (≈ 4.3 µM) | EC50 ([2]; Table IA): no inhibition |
| COC(=O)c1c(Br)c2c(c(OC)c1-c1c(OC)c3c(c(Br)c1C(=O)OC)OCO3)OCO2 [Compound 118, 3,3'-Dibromo-6,6'-dimethoxy-4,5,4,5'-bimethylenedioxy-2,2'-dimethoxycarbonyl biphenyl] |  |  |  |  | > 100 | EC50 [2, 8]: 90 µg/mL (≈ 156 µM); Therapeutic Index ([2]; Table IA, ratio IC50/EC50): > 1.1 |
| COC(=O)c1c(Br)c2c(c(OC)c1-c1c3c(c(OC)c(Br)c1C(=O)OC)OCO3)OCO2 [Compound 119, 3,3'-Dibromo-4,6'-dimethoxy-5,6,4'5'-bimethylenedioxy-2,2'-dimethoxycarbonyl biphenyl] |  |  |  |  | > 100 | EC50 [2, 8]: 2.1 µg/mL (≈ 3.64 µM); Therapeutic Index ([2]; Table IA, ratio IC50/EC50): > 48 |

Second part, led by results:

| EC50 [2, 6] [µg/mL] | SMILES | Therapeutic Index ([2]; Table I, IC50/EC50) | anti-HIV activity [2] | IC50 [3, 5] [µg/mL] | IC50 [3, 7] [µg/mL] | further results |
| --- | --- | --- | --- | --- | --- | --- |
| 60 (≈ 104 µM) | CCOC(=O)c1c(Br)c(OC)c2c(c1-c1c3c(c(OC)c(Br)c1C(=O)O)OCO3)OCO2 [Compound 9, 3,3'-Dibromo-4,4'-dimethoxy-5,6,5'6'-bimethylenedioxy-2-ethoxycarbonyl-2'-carboxy biphenyl] | > 1.7 | decrease in the anti-HIV activity | > 100 |  |  |
| > 100 | COc1c(Br)c(C(=O)O)c(-c2c3c(c(OC)c(Br)c2C(=O)OCC[N+](C)(C)C)OCO3)c2c1OCO2 [Compound 11, 3,3'-Dibromo-4,4'-dimethoxy-5,6,5'6'-bimethylenedioxy-2-carboxy-2'-(β-N,N,N-trimethylamino)ethoxycarbonyl biphenyl chloride] | 1 | decrease in the anti-HIV activity | > 100 |  |  |
| 2 (≈ 2.79 µM) | CCCCCCOC(=O)c1c(Br)c(OC)c2c(c1-c1c3c(c(OC)c(Br)c1C(=O)OCCCCCC)OCO3)OCO2 [Compound 15, 3,3'-Dibromo-4,4'-dimethoxy-5,6,5'6'-bimethylenedioxy-2,2'-dihexanoxycarbonyl biphenyl] | > 50 |  | > 100 |  |  |
| > 100 | COC(=O)c1cc(OCc2ccccc2)c(OCc2ccccc2)c(OC)c1-c1c(OC)c(OCc2ccccc2)c(OCc2ccccc2)c(Br)c1C(=O)OC [Compound 16, 2,2'-Dimethoxycarbonyl-3-bromo-4,4',5,5'-tetrakis(benxyloxy)-6,6'-dimethoxybiphenyl] | 1 | no anti-HIV activity | > 100 |  |  |
| > 100 | COC(=O)c1c(Br)c(OCc2ccccc2)c(OCc2ccccc2)c(OC)c1-c1c(OC)c(OCc2ccccc2)c(OCc2ccccc2)c(Br)c1C(=O)OC [Compound 17, 2,2'-Dimethoxycarbonyl-3,3'-dibromo-4,4'5,5'-tetrakis(benzyloxy)-6,6'-dimethoxy biphenyl] | 1 | no anti-HIV activity | > 100 |  |  |
| > 100 | COc1c(OCc2ccccc2)c(OCc2ccccc2)c(Br)c(CO)c1-c1c(CO)c(Br)c(OCc2ccccc2)c(OCc2ccccc2)c1OC [Compound 19, 2,2'-Dihydroxymethyl-3,3'-dibromo-4,4'5,5'-tetrakis(benzyloxy)-6,6'-dimethoxy diphenyl] | 1 | no anti-HIV activity | > 100 |  |  |

Reference: patent US5612341A, “Brominated hexahydroxybiphenyl derivatives” (Biotech Research Laboratories, priority 1995, dated 1997)
